The target of assay [1] is T1, GRP receptors on rat pancreatic acini (Rattus norvegicus, UniProt P52500).
T1 construct: from tissue; host or cells: dispersed pancreatic acini
Nature of the assay: Binding of 125I-[Tyr4]bombesin to pancreatic acini. Conditions: read-out: Ki 125I-[Tyr4]Bn Binding, GRP Receptor, Rat Pancreatic Acini; Ki by Cheng method.
Description: (§7) Nonsaturable binding was<10% of total binding in all experiments.

Assay [2] deals with endothelin-1-stimulated increases in [3H]IP. Nature of the assay: Endothelin-1-stimulated [3H]IP in C-6 glioblastoma cells. It is filed as cell-based, rat. Here is the method: (§1) Total phosphoinositides in C-6 cells and in NMB-R transfected cells were determined as described previously, with minor modifications [Benya, R. V. et al. Mol. Pharmacol. 42:1058 (1992); and Wang, L-H. et al. Biochem. Jo 286:641 (1992)]. Cells were grown to confluence in 24-well plates and then loaded with 100 μCi/ml myo-[2-^3 H]inositol in Dulbecco's modified essential medium with 2% fetal bovine serum at 37° C. for 48 hrs. Cells were washed and incubated in phosphoinositide buffer (standard buffer additionally containing 10 mM LiCl, 20 mM HEPES, 2 mM CaCl2, 2% BSA, and 1.2 mM MgSO4) for 15 min and then for 60 min at 37° C. with agonists at various concentrations or with 3 nM NMB (a half-maximal effective concentration) and possible antagonists at different concentrations. Reactions were halted using ice-cold 1% HCl in methanol, and the inositol phosphates (IP) were isolated as described previously [Bologna, M. et al. Cancer 63:1714 (1989); and Endo, T. et al. J. Endocrinolo 131:313 (1991)]. Briefly, after loading of the anion exchange column, free [^3 H]glycerophosphorylinositol was removed by washing with 5 mM disodium tetraborate in 60 mM sodium formate. Total [^3 H]inositol phosphates were then eluted using 100 mM formic acid in 1.0M ammonium formate as described previously [Benya, R. V. et al. Mol. Pharmacol. 42:1058 (1992); and Wang, L-H. et al. Biochem. J. 286:641 (1992 )].
(§2) without SSoctapeptide analog added. C6 glioblastoma cells (50,000
(§3) cells/well) were incubated with myo[2^3 H]inositol for two days,
(§4) washed and then incubated with or without the indicated peptides for 60
(§5) minutes at 37° C. in phosphoinositide buffer containing 10 mM LiCl
(§6) as described in METHODS. [^3 H]IP was measured using Dowex AG1X8 anio

The target in assay [3] is T2, mu opioid receptors (Rattus norvegicus, UniProt P33535).
T2 construct: rat forebrain (TRH, mu and delta opioid membrane assays); from tissue; host or cells: rat forebrain membranes
In words: Mu opioid membrane assay, [3H]DAGO, rat forebrain membranes. It is filed as binding. Particulars: Cheng method; unit inferred; read-out: affinity, [3H]DAGO, Rat Forebrain membranes (mu opioid receptors).

In assay [4] the target is GRP receptor (Rattus norvegicus, UniProt P52500). In words: GRP membrane receptor assay, 125I-[Tyr4]Bn, AR 42J cell membranes. It is filed as binding. Particulars: read-out: affinity, 125I-[Tyr4]Bn, AR 42J Cell Membranes (GRP receptors); Cheng method; unit inferred. Details: endogenous in cells; host or cells: rat AR 42J pancreatic acinar tumor cell membranes.
For assay [5], the target named is T3, NMB receptor (Rattus norvegicus, UniProt P24053).
T3 sequence (P24053 1-390): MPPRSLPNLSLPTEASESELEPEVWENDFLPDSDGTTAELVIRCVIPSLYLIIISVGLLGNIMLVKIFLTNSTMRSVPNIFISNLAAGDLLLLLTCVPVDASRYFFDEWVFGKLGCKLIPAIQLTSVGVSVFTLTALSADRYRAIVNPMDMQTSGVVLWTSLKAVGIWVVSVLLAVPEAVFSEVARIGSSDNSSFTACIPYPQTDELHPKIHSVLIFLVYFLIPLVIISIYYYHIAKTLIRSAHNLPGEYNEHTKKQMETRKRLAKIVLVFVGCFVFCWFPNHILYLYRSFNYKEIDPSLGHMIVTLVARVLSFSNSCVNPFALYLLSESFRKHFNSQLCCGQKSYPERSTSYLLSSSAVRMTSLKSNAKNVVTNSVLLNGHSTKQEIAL
Nature of the assay: [3H]IP in C-6 glioblastoma cells (alone or NMB-stimulated). It is filed as cell-based. Also on record: a full length NMB-preferring bombesin receptor clone generated from rat esophagus; expressed in transfected cells. Here is the method: as §1, §2, §3, §4, §5, §6

Assay [6] concerns the target T3, NMB receptor. Nature of the assay: NMB membrane receptor assay, 125I-NMB, rat olfactory bulb membranes. It is filed as binding. Also on record: Membranes were prepared from rat olfactory bulb (NMB membrane receptor assay); from tissue; host or cells: rat olfactory bulb membranes. Conditions: for Ki: Cheng method, unit inferred, read-out: affinity, 125I-NMB, Rat Olfactory bulb membranes (neuromedin B receptors).

In assay [7] the test system is GRP receptors on rat pancreatic acini. In words: Binding of 125I-[Tyr4]bombesin to pancreatic acini. Conditions: NMB-R transfected cells vs GRP-R on rat pancreatic acini.
Description: as §7

Where a SMILES comes first, the peptide text is derived from it. Bridges are numbered along the chain shown (N, C = ends). [ ]: non-standard residue; d: D form. 2Nal = N[C@@H](Cc1ccc2ccccc2c1)C(=O)O; d2Nal = N[C@H](Cc1ccc2ccccc2c1)C(=O)O

The record followed here is patent US5462926A (Biomeasure, Inc., priority 1993, dated 1995).

T1 sequence (P52500 whole entry): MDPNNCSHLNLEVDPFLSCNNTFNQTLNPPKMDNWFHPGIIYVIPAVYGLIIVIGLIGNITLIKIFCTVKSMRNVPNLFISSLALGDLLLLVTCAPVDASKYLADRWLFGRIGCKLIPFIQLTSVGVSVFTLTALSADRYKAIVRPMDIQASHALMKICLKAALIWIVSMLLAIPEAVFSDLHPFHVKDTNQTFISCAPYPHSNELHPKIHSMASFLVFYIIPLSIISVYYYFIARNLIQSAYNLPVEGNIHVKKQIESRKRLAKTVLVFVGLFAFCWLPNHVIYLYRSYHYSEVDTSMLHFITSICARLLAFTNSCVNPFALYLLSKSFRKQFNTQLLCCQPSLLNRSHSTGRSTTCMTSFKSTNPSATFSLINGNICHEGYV
Sequence of GRP receptor (P52500 whole entry): as above
T2 sequence (P33535 whole entry): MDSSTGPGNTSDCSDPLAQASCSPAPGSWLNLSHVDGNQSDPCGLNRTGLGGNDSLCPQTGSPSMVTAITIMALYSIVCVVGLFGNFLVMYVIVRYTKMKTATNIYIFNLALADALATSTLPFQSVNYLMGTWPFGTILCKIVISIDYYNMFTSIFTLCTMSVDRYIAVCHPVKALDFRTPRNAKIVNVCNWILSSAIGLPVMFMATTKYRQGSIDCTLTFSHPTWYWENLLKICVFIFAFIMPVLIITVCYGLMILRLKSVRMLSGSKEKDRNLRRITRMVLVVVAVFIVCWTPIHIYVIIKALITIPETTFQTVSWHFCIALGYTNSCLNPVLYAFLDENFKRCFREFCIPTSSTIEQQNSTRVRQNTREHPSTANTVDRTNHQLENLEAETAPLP

In the case of `C[C@@H](O)[C@H](NC(=O)[C@@H]1CSSC[C@H](NC(=O)[C@H](N)Cc2ccc3ccccc3c2)C(=O)N[C@@H](Cc2ccc(O)cc2)C(=O)N[C@H](Cc2c[nH]c3ccccc23)C(=O)N[C@@H](CCCCN)C(=O)N[C@@H](Cc2ccc3ccccc3c2)C(=O)N1)C(N)=O` [Analog #2, H2 -D-Nal-Cys-Tyr-D-Trp-Lys-Nal-Cys-Thr-NH2], the Ki was found to be 16.3 ± 3.82 µM in assay [1], 1.9 ± 0.7 nM in assay [3], 950 ± 70 nM in assay [4] and 85 ± 20 nM in assay [6]. Moreover, in assay [2], the “effect on endothelin-1-stimulated increases in [3H]IP in C-6 cells” value was “no effect”. The “[3H]IP with ET-1 (0.1 nM)” value in assay [2] (analog 10 μM, ET-1 alone 11.0 ± 2.1) is on record as 11.2 ± 1.9 dpm × 10^3. The “effect on NMB-stimulated increases in [3H]IP in C-6 cells” value in assay [5] is recorded as “inhibited”. For the same compound, the “[3H]IP, no peptide added” value in assay [5] (analog 10 μM, 60 min 37° C., control 7.2 ± 1.0) is recorded as 7.3 ± 1.2 dpm × 10^3. The “[3H]IP with NMB (10 nM)” value in assay [5] (analog 10 μM, NMB alone 21.0 ± 1.8) stood at 14.3 ± 4.2 dpm × 10^3.

In the case of `CC(C)[C@@H]1NC(=O)[C@H](CCCCN)NC(=O)[C@@H](Cc2c[nH]c3ccccc23)NC(=O)[C@H](Cc2ccc(O)cc2)NC(=O)[C@@H](NC(=O)[C@H](N)Cc2ccccc2)CSSC[C@@H](C(=O)N[C@@H](Cc2ccc3ccccc3c2)C(N)=O)NC1=O` [Analog #4, H2 -D-Phe-Cys-Tyr-D-Trp-Lys-Val-Cys-Nal-NH2] (H-[dF]CY[dW]KVC[2Nal]-NH2; disulfide 2-7), the Ki in assay [1] was determined as 21.9 ± 4.26 µM; in assay [3], 650 ± 130 nM; in assay [4], 2000 ± 150 nM; in assay [6], 245 ± 130 nM.

On to `C[C@@H](O)[C@@H]1NC(=O)[C@H](CCCCN)NC(=O)[C@@H](Cc2c[nH]c3ccccc23)NC(=O)[C@H](Cc2ccc(O)cc2)NC(=O)[C@@H](NC(=O)[C@H](N)Cc2ccccc2)CSSC[C@@H](C(=O)N[C@@H](Cc2ccc3ccccc3c2)C(N)=O)NC1=O` [Analog #7, H2 -D-phe-Cys-Tyr-D-Trp-Lys-Thr-Cys-Nal-NH2] (H-[dF]CY[dW]KTC[2Nal]-NH2; disulfide 2-7), for which the Ki in assay [1] turned out to be 31 ± 4.65 µM; in assay [3], 200 nM; in assay [4] it was 750 ± 10 nM; in assay [6], 740 ± 160 nM.

Turning to `CC(C)[C@@H]1NC(=O)[C@H](CCCCN)NC(=O)[C@@H](Cc2c[nH]c3ccccc23)NC(=O)[C@H](Cc2ccc(O)cc2)NC(=O)[C@@H](NC(=O)[C@H](N)Cc2ccc3ccccc3c2)CSSC[C@@H](C(=O)N[C@H](Cc2ccc3ccccc3c2)C(N)=O)NC1=O` [Analog #8, H2 -D-Nal-Cys-Tyr-D-Trp-Lys-Val-Cys-D-Nal-NH2] (H-[d2Nal]CY[dW]KVC[d2Nal]-NH2; disulfide 2-7), the Ki in assay [1] is > 10 µM; in assay [3] it was 280 nM; in assay [4], 4100 ± 750 nM; in assay [6], 1480 ± 500 nM.

Consider `CC(C)[C@@H]1NC(=O)[C@H](CCCCN)NC(=O)[C@@H](Cc2c[nH]c3ccccc23)NC(=O)[C@H](Cc2ccc(O)cc2)NC(=O)[C@@H](NC(=O)[C@@H](N)Cc2ccc3ccccc3c2)CSSC[C@@H](C(=O)N[C@H](Cc2ccc3ccccc3c2)C(N)=O)NC1=O` [Analog #9, H2 -Nal-Cys-Tyr-D-Trp-Lys-Val-Cys-D-Nal-NH2] (H-[2Nal]CY[dW]KVC[d2Nal]-NH2; disulfide 2-7), for which the Ki in assay [1] was > 10 µM; in assay [3], 1160 nM; in assay [4] it was 1540 ± 180 nM; in assay [6] it was 590 ± 170 nM.

`CC(C)[C@@H]1NC(=O)[C@H](CCCCN)NC(=O)[C@@H](Cc2c[nH]c3ccccc23)NC(=O)[C@H](Cc2ccc(O)cc2)NC(=O)[C@H](NC(=O)[C@H](N)Cc2ccc3ccccc3c2)CSSC[C@@H](C(=O)N[C@@H](Cc2ccc3ccccc3c2)C(N)=O)NC1=O` [Analog #10, H2 -D-Nal-D-Cys-Tyr-D-Trp-Lys-Val-Cys-Nal-NH2] (H-[d2Nal][dC]Y[dW]KVC[2Nal]-NH2; disulfide 2-7): the Ki is > 10 µM in assay [1], 1020 nM in assay [3], 1500 ± 160 nM in assay [4] and 920 ± 350 nM in assay [6].

As to `CC(C)[C@@H]1NC(=O)[C@H](CCCCN)NC(=O)[C@@H](Cc2c[nH]c3ccccc23)NC(=O)[C@H](Cc2ccc(O)cc2)NC(=O)[C@@H](NC(=O)[C@H](N)Cc2ccc3ccccc3c2)CSSC[C@H](C(=O)N[C@@H](Cc2ccc3ccccc3c2)C(N)=O)NC1=O` [Analog #11, H2 -D-Nal-Cys-Tyr-D-Trp-Lys-Val-D-Cys-Nal-NH2] (H-[d2Nal]CY[dW]KV[dC][2Nal]-NH2; disulfide 2-7), the Ki in assay [1] is > 10 µM; in assay [3] it was > 10000 nM; in assay [4], 7620 ± 1260 nM; in assay [6], 230 ± 70 nM. In addition, the “fold greater affinity for NMB receptors than mu opioid receptors” value in assay [6] (membranes, Table 4) is given as > 50 fold.

Consider `CC(C)[C@@H]1NC(=O)[C@H](CCCCN)NC(=O)[C@@H](Cc2c[nH]c3ccccc23)NC(=O)[C@H](Cc2ccc(O)cc2)NC(=O)[C@@H](NC(=O)[C@H](N)Cc2c[nH]c3ccccc23)CSSC[C@@H](C(=O)N[C@@H](Cc2ccc3ccccc3c2)C(N)=O)NC1=O` [Analog #12, H2 -D-Trp-Cys-Tyr-D-Trp-Lys-Val-Cys-Nal-NH2] (H-[dW]CY[dW]KVC[2Nal]-NH2; disulfide 2-7), for which the Ki is > 10 µM in assay [1], > 10000 nM in assay [3], 2100 ± 150 nM in assay [4] and 1180 ± 520 nM in assay [6].

As to `NCCCC[C@@H]1NC(=O)[C@@H](Cc2c[nH]c3ccccc23)NC(=O)[C@H](Cc2ccc(O)cc2)NC(=O)[C@@H](NC(=O)[C@H](N)Cc2ccc3ccccc3c2)CSSC[C@@H](C(=O)N[C@@H](Cc2ccc3ccccc3c2)C(N)=O)NC(=O)[C@H](Cc2ccccc2)NC1=O` [Analog #13, H2 -D-Nal-Cys-Tyr-D-Trp-Lys-Phe-Cys-Nal-NH2] (H-[d2Nal]CY[dW]KFC[2Nal]-NH2; disulfide 2-7), the Ki in assay [1] is > 10 µM; in assay [3] it was 1640 nM; in assay [4], 2150 ± 200 nM; in assay [6], 270 ± 90 nM. In assay [7], the “fold greater affinity for NMB than GRP receptors” value is recorded as > 100 fold.

Regarding `CC(C)[C@@H]1NC(=O)[C@H](Cc2c[nH]cn2)NC(=O)[C@@H](Cc2c[nH]c3ccccc23)NC(=O)[C@H](Cc2ccc(O)cc2)NC(=O)[C@@H](NC(=O)[C@H](N)Cc2ccc3ccccc3c2)CSSC[C@@H](C(=O)N[C@@H](Cc2ccc3ccccc3c2)C(N)=O)NC1=O` [Analog #14] (H-[d2Nal]CY[dW]HVC[2Nal]-NH2; disulfide 2-7; N-terminus assumed), the Ki in assay [1] was > 10 µM; in assay [3], 500 nM; in assay [4] it was 3100 ± 700 nM; in assay [6] it was 470 ± 240 nM. The “fold higher affinity for NMB receptors than somatostatin receptors” value in assay [6] (membranes, Table 4) was 3 fold.

As to `CC(C)[C@@H]1NC(=O)[C@H](CCCCN)NC(=O)[C@@H](Cc2ccc3ccccc3c2)NC(=O)[C@H](Cc2ccc(O)cc2)NC(=O)[C@@H](NC(=O)[C@H](N)Cc2ccc3ccccc3c2)CSSC[C@@H](C(=O)N[C@@H](Cc2ccc3ccccc3c2)C(N)=O)NC1=O` [Analog #17, H2 -D-Nal-Cys-Tyr-D-Nal-Lys-Val-Cys-Nal-NH2] (H-[d2Nal]CY[d2Nal]KVC[2Nal]-NH2; disulfide 2-7), the Ki in assay [1] is > 10 µM; in assay [3] it was 1570 nM; in assay [4], 3710 ± 200 nM; in assay [6], 850 ± 300 nM. Also, in assay [7], the “fold greater affinity for NMB than GRP receptors” value is > 100 fold.
